Consider 1 compound from patent publication EP2377520A1, “Pharmaceutical compound of prasugrel” (Ratiopharm GmbH, priority 2010, dated 2011).

Data set [1] is described as follows: Solubility in water. Type of data set: physicochemical. As to conditions: in Wasser, freie Base, read-out: Löslichkeit. As for the experimental part:
Prasugrel wird als Plättchenaggregationshemmer oral verabreicht. Problematisch hierbei ist, dass es sich bei Prasugrel um einen schwer löslichen Wirkstoff handelt. Die freie Base des Wirkstoffs weist eine Löslichkeit von 57 µg/ml in Wasser auf, aber auch die Salze zeigen nur eine begrenzte Löslichkeit.

The nature of data set [2]: pH-dependent degradation. Type of data set: physicochemical. As to conditions: pH-Werte < 3; nach bereits 2 Stunden; read-out: Abbau. The source says:
Darüber hinaus weist Prasugrel auch einen stark pH-abhängigen Abbau auf. Bei pH-Werten von < 3 ist ein Abbau von mehr als 1 % nach bereits 2 Stunden zu beobachten. Dies schränkt die möglichen Hilfsstoffe bei der Herstellung pharmazeutischer Formulierungen ein.

In brackets after ≈: the same amount, converted by molar mass. Bounds are passed on as bounds.

As for `CC(=O)Oc1cc2c(s1)CCN(C(C(=O)C1CC1)c1ccccc1F)C2` (centres unmarked) [Prasugrel, 2-Acetoxy-5-(a-cyclopropylcarbonyl-2-fluorbenzyl)-4,5,6,7-tetrahydrothieno[3,2-c]pyridin], in data set [1], the solubility was determined as 57 µg/mL (≈ 153 µM). For the same compound, the degraded at 2 h in data set [2] is > 1%.
